Results: publication PMC6520365, “Structural and functional characterization of the PDZ domain of the human phosphatase PTPN3 and its interaction with the human papillomavirus E6 oncoprotein” (Scientific Reports, 2019)
Ends that are not written are not given here.

Molecular target: T1, PTPN3-PDZ (Homo sapiens, UniProt P26045)
T1 construct: GST (followed by a TEV cleavage site) (N, cleaved yes); made in house; host or cells: E. coli BL21 Star (DE3)
T1 sequence (P26045 510-582 limits assumed): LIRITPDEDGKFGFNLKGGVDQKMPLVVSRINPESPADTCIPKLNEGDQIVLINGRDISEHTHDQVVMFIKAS
Test: NMR titration (1H,15N HSQC chemical shift perturbation) of PBM peptide affinity for PTPN3-PDZ
Assay type: binding
Experimental: The affinities of HPV16E6 PBM, HPV18E6 PBM, p38γ PBM and HBVc PBM for PTPN3-PDZ were measured by NMR titration. We followed ^1H, ^15N chemical shift perturbations of PTPN3-PDZ signals in the ^1H-^15N HSQC spectra as a function of increasing concentrations of the PBM peptide to determine the dissociation constant (KD) (Fig. S1). […] The KD values are all in the same tenth-of-micromolar range for the viral PBMs and are close to the one of the cellular partner p38γ. […]
Briefly, the unlabeled peptides (stock solutions ranging from 2.8 to 5.7 mM) at pH 7.5 were added stepwise in a sample initially containing 240–260 μL of ^15N-labeled PTPN3-PDZ at a concentration of 95 or 149 μM. A series of ^1H, ^15N HSQC spectra was recorded for the different titration points. Chemical shift changes were calculated using the free PTPN3-PDZ signals as a reference. Chemical shift differences in the cross-peaks by titration were calculated using the relationship: Δδ = ((ΔδHN)^2 + (0.15 × ΔδN)^2)^0.5 where ΔδHN and ΔδN are changes in the ^1H and ^15N chemical shifts in ppm, respectively. […]

Sequence: RQERLQRRETQV [HPV18E6 PBM]
- Kd: 37 ± 20 µM
